Measured values taken from patent publication US5436221A, “Tumor metastasis inhibiting compounds and methods” (Fuji Photo Film Co., Ltd., priority 1991, dated 1995).
Numbered stars: 1 amine (or outer) side, 2 acyl side, 3 side chain; on linkers, the order of the positions; unused ones are H or OH. Square brackets hold non-standard residues; d marks the D form. Ends that are not written are not given here. Peptide text beside a SMILES is read from it. * marks the point of attachment. X4 = O=C(O)[C@H]1OC(OCCOCCN*)[C@H](O)[C@@H](O)[C@@H]1O; Suc = O=C(CCC(=O)[*:2])[*:1]

Legend:
B16-BL6 melanoma cells = assay: Experimental melanoma metastasis in lungs caused by injection of B16-BL6 melanoma cells; type: in vivo, C57BL/6 female mice
Experimental: The tumor metastasis inhibitory activities of the peptide derivatives of the present invention were examined as follows.
Each of the following peptide derivatives according to the present invention, Compounds 1 to 13, 15, 19 to 22, 25, 32, 36, 37, 44, 47, 50, 56-1, 56-4, 59, 65, 68, 70, 73, 76, 77, 80, 84, 87, 89, 90, 94, 96, 99, 101, 103,106, 112, 114, 118 and 121 was mixed with B16-BL6 melanoma cells having a potent metastatic tendency in PBS so that 0.2 ml of the mixture contained 3000, 1000 or 500 μg of the peptide derivative and 5×10^6 of B16-BL6 melanoma cells. Then, 0.2 ml of each mixture was intravenously administered to each individual of a group of C57BL/6 female mice consisting of 5 mice. Fourteen days after the administration, the number of melanoma cell colony in lungs was determined and compared with that of the control mice, which were administered with PBS.
(§1) For comparison, the peptide fragments known to have tumor metastasis inhibition activity, Arg--Gly--Asp--Ser (SEQ ID NO:16) (Comparison A), Gly--Arg--Gly--Asp--Ser (SEQ ID NO:17) (Comparison B) and (Arg--Gly--Asp)n(n=5) (SEQ ID NO:18) as well as Reference Polymer A were also administered to the mice in the same manner as above.

[1] = system: L5178Y ML25 T-lymphoma cells; assay: Experimental T-lymphoma metastasis in liver and spleen caused by injection of L5178Y ML25 T-lymphoma cells; type: in vivo, CDF1 (BALB/c×DBA/2) female mice; conditions: dose 1000 μg mixed with T-lymphoma cells, i.v., 14 days after; for Weight (g): Average ± SD Spleen: PBS control 0.28 ± 0.03, no tumor cells 0.08 ± 0; for Weight (g): Average ± SD Liver: PBS control 4.21 ± 0.49, no tumor cells 1.09 ± 0.11
Experimental: Separately, each of the following peptide derivatives of the present invention, Compound 1, 2, 8, 12, 20, 47, 56, 59, 67, 73 and 85, was mixed with L5178Y ML25 T-lymphoma cells in PBS so that 0.2 ml of the mixture contained 3000 or 1000 μg of the peptide derivative and 4×10^4 of the T-lymphoma cells. Then, 0.2 ml of each mixture was intravenously administered to each individual of a group of CDF1 (BALB/c×DBA/2) female mice consisting of 5 mice. Fourteen days after the administration, the weights of the livers and the spleens of the mice were determined and compared with those of the control mice.
as §1

[2] = Experiment 7, dose 500 μg, PBS control 85 ± 20
[3] = Experiment 1, dose 3000 μg mixed with B16-BL6 cells, i.v., lung colonies 14 days after, PBS control 116 ± 27
[4] = Experiment 2, dose 1000 μg mixed with B16-BL6 cells, i.v., lung colonies 14 days after, PBS control 84 ± 11
[5] = Experiment 5, dose 1000 μg, PBS control 91 ± 33
[6] = Experiment 3, dose 500 μg, lung colonies 14 days after, PBS control 145 ± 30
[7] = Experiment 6, dose 500 μg, PBS control 128 ± 24
[8] = Experiment 4, dose 500 μg, PBS control 116 ± 19

6-O-Carboxymethyl-N-Acetylchitohexaose Carrying --Asp--Arg--Leu--Asp--Ser [Compound 94]
Number of Colony Average ± SD (B16-BL6 melanoma cells; [2]): 14 ± 3

6-O-Carboxymethyl-N-Acetylchitohexaose Carrying --Gly--Arg--Phe--Asp--Ser [Compound 96]
Number of Colony Average ± SD (B16-BL6 melanoma cells; [2]): 9 ± 4

6-O-Sulfated-Carboxymethyl-N-Acetylchitooligosaccharide Carrying --Asp--Arg--D--Leu--Asp--Ser [Compound 99]
Number of Colony Average ± SD (B16-BL6 melanoma cells; [2]): 3 ± 3

6-O-Sulfated-Carboxymethyl-N-Acetylchitooligosaccharide Carrying --Asp--Arg--D--Phe--Asp--Ser [Compound 101]
Number of Colony Average ± SD (B16-BL6 melanoma cells; [2]): 13 ± 6

N=C(N)NCCC[C@H](N)C(=O)NCC(=O)N[C@@H](CC(=O)O)C(=O)N[C@@H](CO)C(=O)O [Comparison A, Arg--Gly--Asp--Ser]
Weight (g): Average ± SD Spleen [1]: 0.22 ± 0.03 g
Weight (g): Average ± SD Liver [1]: 3.67 ± 1.04 g
Number of Colony Average ± SD (B16-BL6 melanoma cells; [3]): 70 ± 8
Number of Colony Average ± SD (B16-BL6 melanoma cells; [4]): 62 ± 9
Number of Colony Average ± SD (B16-BL6 melanoma cells; Experiment 3, dose 3000 μg, PBS control 145 ± 30): 92 ± 14
Number of Colony Average ± SD (B16-BL6 melanoma cells; Experiment 4, dose 3000 μg, PBS control 116 ± 19): 74 ± 11
Number of Colony Average ± SD (B16-BL6 melanoma cells; Experiment 5, dose 3000 μg, PBS control 91 ± 33): 60 ± 4
Number of Colony Average ± SD (B16-BL6 melanoma cells; Experiment 6, dose 3000 μg, PBS control 128 ± 24): 88 ± 20
Number of Colony Average ± SD (B16-BL6 melanoma cells; Experiment 7, dose 3000 μg, PBS control 85 ± 20): 51 ± 6

N=C(N)NCCC[C@H](NC(=O)CN)C(=O)NCC(=O)N[C@@H](CC(=O)O)C(=O)N[C@@H](CO)C(=O)O [Comparison B, Gly--Arg--Gly--Asp--Ser]
Weight (g): Average ± SD Spleen [1]: 0.17 ± 0.03 g
Weight (g): Average ± SD Liver [1]: 2.24 ± 0.46 g
Number of Colony Average ± SD (B16-BL6 melanoma cells; [3]): 50 ± 10
Number of Colony Average ± SD (B16-BL6 melanoma cells; [4]): 40 ± 10
Number of Colony Average ± SD (B16-BL6 melanoma cells; Experiment 3, dose 1000 μg, PBS control 145 ± 30): 89 ± 18
Number of Colony Average ± SD (B16-BL6 melanoma cells; Experiment 4, dose 1000 μg, PBS control 116 ± 19): 78 ± 8
Number of Colony Average ± SD (B16-BL6 melanoma cells; [5]): 49 ± 7
Number of Colony Average ± SD (B16-BL6 melanoma cells; Experiment 6, dose 1000 μg, PBS control 128 ± 24): 76 ± 6
Number of Colony Average ± SD (B16-BL6 melanoma cells; Experiment 7, dose 1000 μg, PBS control 85 ± 20): 50 ± 8

CC(C)C[C@H](NC(=O)[C@@H](N)CCCNC(=N)N)C(=O)N[C@@H](CC(=O)O)C(=O)N[C@@H](CO)C(N)=O [Compound 9] (H-RLDS-NH2)
Number of Colony Average ± SD (B16-BL6 melanoma cells; [3]): 22 ± 10

C[C@@H](NC(=O)[C@@H](N)CCCNC(=N)N)C(=O)N[C@@H](CC(=O)O)C(=O)N[C@H](C(N)=O)[C@@H](C)O [Compound 10] (H-R[dA]DT-NH2)
Number of Colony Average ± SD (B16-BL6 melanoma cells; [3]): 58 ± 15

CC(=O)N[C@@H](CC(=O)O)C(=O)N[C@H](CCCNC(=N)N)C(=O)N[C@@H](CC(C)C)C(=O)N[C@@H](CC(=O)O)C(=O)N[C@@H](CO)C(=O)O [Compound 32] (Ac-D[dR]LDS-OH)
Number of Colony Average ± SD (B16-BL6 melanoma cells; [4]): 24 ± 5

CC(C)C[C@@H](NC(=O)[C@H](CCCNC(=N)N)NC(=O)[C@H](CO)NC(=O)[C@H](CC(=O)O)NC(=O)[C@@H](CC(C)C)NC(=O)[C@H](CCCNC(=N)N)NC(=O)[C@H](CO)NC(=O)[C@H](CC(=O)O)NC(=O)[C@@H](CC(C)C)NC(=O)[C@H](CCCNC(=N)N)NC(=O)[C@H](CO)NC(=O)[C@H](CC(=O)O)NC(=O)[C@@H](CC(C)C)NC(=O)[C@@H](N)CCCNC(=N)N)C(=O)N[C@@H](CC(=O)O)C(=O)N[C@@H](CO)C(=O)O [Compound 37] (H-R[dL]DSR[dL]DSR[dL]DSR[dL]DS-OH)
Number of Colony Average ± SD (B16-BL6 melanoma cells; [6]): 27 ± 11

CC(C)C[C@H](NC(=O)[C@H](CCCNC(=N)N)NC(=O)CCC(=O)NCCOCCOC1O[C@H](C(=O)O)[C@@H](O)[C@H](O)[C@H]1O)C(=O)N[C@@H](CC(=O)O)C(=O)N[C@@H](CO)C(=O)O (some centres unmarked) [Compound 80] ({X4-Suc}-RLDS-OH)
Number of Colony Average ± SD (B16-BL6 melanoma cells; [7]): 36 ± 7

(Arg--Gly--Asp)n(n=5) [Comparison C]
Number of Colony Average ± SD (B16-BL6 melanoma cells; Experiment 1, dose 1000 μg mixed with B16-BL6 cells, i.v., lung colonies 14 days after, PBS control 116 ± 27): 40 ± 15
Number of Colony Average ± SD (B16-BL6 melanoma cells; [4]): 23 ± 9
Number of Colony Average ± SD (B16-BL6 melanoma cells; [6]): 68 ± 9
Number of Colony Average ± SD (B16-BL6 melanoma cells; [5]): 39 ± 11
Number of Colony Average ± SD (B16-BL6 melanoma cells; [7]): 57 ± 12
Number of Colony Average ± SD (B16-BL6 melanoma cells; [2]): 44 ± 16

GRLDS [Compound 15]
Number of Colony Average ± SD (B16-BL6 melanoma cells; [3]): 43 ± 12

Iminodiacetic Acid-Tetracraboxylic Acid Derivative (β-Ala--Arg--Leu--Asp--Ser)4 [Compound 76]
Number of Colony Average ± SD (B16-BL6 melanoma cells; [8]): 48 ± 5

RLDSRLDSRLDSRLDS [Compound 36]
Number of Colony Average ± SD (B16-BL6 melanoma cells; [6]): 46 ± 6

R[dL]DR[dL]DR[dL]DR[dL]DR[dL]DR[dL]DR[dL]DR[dL]DR[dL]DR[dL]DR[dL]DR[dL]DR[dL]DR[dL]DR[dL]DR[dL]DR[dL]DR[dL]DR[dL]DR[dL]D [Compound 44]
Number of Colony Average ± SD (B16-BL6 melanoma cells; [6]): 66 ± 15

Succinyl Derivative of Chondroitin Sulfate Carrying --(Arg--D--Leu--Asp--Ser)2 [Compound 121]
Number of Colony Average ± SD (B16-BL6 melanoma cells; [2]): 45 ± 11

Succinylated CM-Chitin Carrying --(Arg--D--Leu--Asp--Ser)2 [Compound 112]
Number of Colony Average ± SD (B16-BL6 melanoma cells; [2]): 14 ± 7

Succinylated CM-Chitin Carrying --Gly--Arg--D--Leu--Asp--Ser [Compound 106]
Number of Colony Average ± SD (B16-BL6 melanoma cells; [2]): 1 ± 1

Succinylated Chondroitin Sulfate Carrying --D--Arg--Phe--Asp--Ser [Compound 118]
Number of Colony Average ± SD (B16-BL6 melanoma cells; [2]): 43 ± 8

Succinylated Pantaethylenehexaamine (β-Ala--Arg--Leu--Asp--Ser--NH--iPr)6 [Compound 77]
Number of Colony Average ± SD (B16-BL6 melanoma cells; [8]): 41 ± 6

Succinylated Polyallylamine Carrying --(Asp--D--Arg--Phe--Asp--Ser)2 [Compound 103]
Number of Colony Average ± SD (B16-BL6 melanoma cells; [2]): 24 ± 8

Sulfated CM-Chitin Carrying --Gly--D--Arg--Leu--Asp--Ser [Compound 114]
Number of Colony Average ± SD (B16-BL6 melanoma cells; [2]): 21 ± 11

Tetrahydrofuran-2,3,4,5-Tetracarboxylic Acid (Arg--Leu--Asp--Ser)4 (RLDS; also: four copies on tetrahydrofuran-2,3,4,5-tetracarboxylic acid core) [Compound 73]
Weight (g): Average ± SD Spleen [1]: 0.15 ± 0.05 g
Weight (g): Average ± SD Liver [1]: 1.95 ± 1.00 g
Number of Colony Average ± SD (B16-BL6 melanoma cells; [8]): 38 ± 7
